{"source": "patent US5747545A", "about": "“Method of preventing NMDA receptor complex-mediated Neuronal damage” (priority 1995, dated 1998)", "key": {"[1]": {"test_system": "NMDA receptor (rat cortical neurons in culture)", "experiment": "Digital fura-2 imaging of NMDA-evoked intracellular [Ca2+] in cultured cortical neurons", "type": "cell-based, rat (Sprague-Dawley)", "settings": "50 μM NMDA; Examples 1-2; NTG 100 μM in Example 2", "protocol": "The concentration of intracellular free Ca^2+ ([Ca^2+ ]i) is measured in neonatal cortical neurons by digital imaging microscopy with the Ca^2+ sensitive fluorescent dye fura 2, as follows. The same cortical neuronal cultures as described above are used. During Ca^2+ measurements, unless otherwise stated the fluid bathing the neurons consists of Hanks' balanced salts: 137.6 mM NaCl, 1 mM NaHCO3, 0.34 mM Na2 HPO4, 0.44 mM KH2 PO4, 5.36 mM KCl, 1.25 mM CaCl2, 0.5 mM MgSO4, 0.5 mM MgCl2, 5 mM Hepes NaOH, 22.2 mM glucose, and sometimes with phenol red indicator (0.001% v/v); pH 7.2. NMDA (in the absence Mg^++), glutamate, and other substances are usually applied to the neurons by pressure ejection after dilution in this bath solution. Neuronal [Ca^2+ ]i is analyzed with fura 2-acetoxy-methyl ester (AM) as described [Grynkiewicz, et al., J. Biol. Chem. 260:3440 (1985); Williams et al., Nature 318:558 (1985); Connor et al., J. Neurosci. 7:1384 (1987); Connor et al., Science 240:649 (1988); Cohan et al., J. Neurosci. 7:3588 (1987); Mattson, et al., ibid, 9:3728 (1989)]. After adding Eagle's minimum essential medium containing 10 μM fura 2-AM to the neurons, the cultures are incubated at 37° C. in a 5% CO2 /95% air humidified chamber and then rinsed. The dye is loaded, trapped, and deesterified within 1 hour, as determined by stable fluorescence ratios and the effect of the Ca^2+ ionophore ionomycin on [Ca^2+ ]i is measured. During Ca^2+ imaging, the cells are incubated in a solution of Hepes-buffered saline with Hanks' balanced salts. The [Ca^2+ ]i is calculated from ratio images that are obtained by measuring the fluorescence at 500 nm that is excited by 350 and 380 nm light with a DAGE MTI 66 SIT or QUANTEX QX-100 Intensified CCD camera mounted on a Zeiss Axiovert 35 microscope. Exposure time for each picture is 500 ms. Analysis is performed with a Quantex (Sunnyvale, Calif.) QX7-210 image-processing system. Since cells are exposed to ultraviolet light only during data collection (generally less than a total of 20 s per cell), bleaching of fura 2 is minimal.\nIn this experiment, the effect of NTG on intracellular [Ca^++ ] increases induced by NMDA were followed using digital [Ca^++ ] imaging techniques, based on the dye fura-2.\nSpecifically, the model for NMDA-mediated neurotoxicity involves exposure of cultured rat cortical neurons to NMDA in the presence of glycine (a co-agonist).\nCortical cultures were derived from embryonic (fetal day 15 or 16) Sprague-Dawley rats as described previously (Dichter, 1978; Rosenberg and Aizenman, 1989). […]"}, "[2]": {"test_system": "cortical neurons (NMDA receptor-mediated neurotoxicity)", "experiment": "Neurotoxicity assay: survival of cortical neurons after DTT and NMDA exposure", "type": "cell-based, rat", "settings": "NTG 100 μM (30 μM NMDA, 30 min); SNP 400 μM (75 μM NMDA, 5 min); FIGS. 6A and 6B", "protocol": "To test compounds for their ability to prevent neurotoxicity, neuronal cell death may be assayed as follows. […] The candidate compound is tested by addition (e.g., in a series of concentrations ranging from 0.1 nM-10 mM) after DTT treatment but before NMDA treatment. The candidate compound can be added for minutes, hours, or even days prior to its washout period. […] Neuronal cultures are scored for cell survival after this overnight incubation because NMDA toxicity is often delayed by several hours following NMDA exposure.\nUsing the neurotoxicity assay described above, the compounds sodium nitroprusside and nitroglycerin were tested individually for their ability to increase survival of neonatal cortical neurons.\nAs shown in FIG. 6A-6D, surviving neurons are expressed as the percentage of viable neurons in the control culture dishes in the same experiment. The concentrations of drugs were as follows: APV (2 mM), NTG (100 μM), SNP (400 μM), DTT (0.5-2 mM), and reduced Hb (500 μM). […] Values are mean ±SEM for experiments run in triplicate on sibling cultures on separate days (total of 32 experiments). Astericks indicate significant difference compared with the value for DTT-NMDA exposure, P<0.05 (ANOVA followed by Scheffe multiple comparison of means."}, "[3]": {"test_system": "cerebral cortical infarct (rat pups)", "experiment": "Bilateral carotid ligation plus hypoxia stroke model in rat pups pretreated with NTG patches", "type": "in vivo", "protocol": "Rat pups were treated with nitroglycerin (NTG) approximately for 36-48 hours before performing bilateral carotid ligations. The dosing regimen for the 3 groups of rat pups used to generate the data was as follows.\nHair was removed from the abdominal region of the rat pup using a razor. One-quarter of a NTG patch (Minitran) was applied to the shaved area. A quarter patch of this size corresponds to a dose of 0.6 mg/24 hours (whole patch 2.4 mg/24 hr). Between 12 and 16 hours later, another quarter-patch was applied to the rat's abdomen, leaving the first on. This procedure was again repeated 12-16 hours later. Each rat pup received 3 or 4 quarter patches before surgery, which was performed two days later and consisted of bilateral carotid ligation followed by hypoxia to induce a stroke.\nUsing this procedure of inducing NTG systemic tolerance, the following results were obtained: In the control group, 7/11 (64%) of the animals suffered large ([…]) cerebral cortical infarcts. In contrast, in the NTG-treated group, only 2/13 (15%) of the animals had any discernible cerebral infarct at all (P<0.03 by Fisher's exact test).\nAnimals are operated on (to induce a stroke) approximately 48 hr after the initial administration of NTG patches."}, "[4]": {"settings": "intravenous NTG, human; cited from earlier work"}}}
{"compound": "O=[N+]([O-])OCC(CO[N+](=O)[O-])O[N+](=O)[O-]", "note": "[NTG, 1,2,3-propanetriol trinitrate]", "values": [{"measurement": "Effect on NMDA-evoked [Ca2+]i response", "setting": "[1]", "value": "persistently decreased the NMDA-evoked [Ca^2+ ]i response"}, {"measurement": "Effect on neuronal injury engendered by NMDA after exposure to DTT", "setting": "[2]", "value": "ameliorated neuronal injury"}, {"measurement": "Animals with any discernible cerebral infarct (number/total)", "setting": "[3]; NTG patches approx. 36-48 h before bilateral carotid ligation, control 7/11 (64%) large infarcts, P<0.03 Fisher's exact test", "value": "2/13"}, {"measurement": "Animals with any discernible cerebral infarct (percent)", "setting": "[3]; NTG patches approx. 36-48 h before bilateral carotid ligation, control 64%, P<0.03", "value": 15, "unit": "%"}, {"measurement": "Cerebral protection", "setting": "[3]; NTG transdermal patches, tolerance-inducing procedure", "value": "cerebral protective"}, {"measurement": "Time to systemic tolerance, intravenous continuous infusion", "setting": "[4]", "value": "18 to 24", "unit": "h"}]}
